The test system of the test is A549 cells. The experiment in a line: inhibition assay with caspase and autophagy inhibitors on cells co-treated with berberine and IR. It is filed as cell-based, human. Here is the method:
Berberine has been reported to induce cell death in several cancer cells via mitochondrial disruption (Lin J P, et al. World J Gastroenterol 2006; 12:21-28.). Therefore, mitochondrial membrane potential was next measured with JC-1. Mitochondria membrane potential (Δ Ψm), the lipophilic cationic probe fluorochrome JC-1 (Invitrogen) was used. […] After a treatment of radiation (6 Gy) for 24 h in the absence or presence of 1.0-10 μM berberine, cells were rinsed with DMEM, and JC-1 (5 μmol/L) was loaded. Determination of Δ Ψm was also carried out with a FACScan Flow Cytometer. […] It has been reported that depolarized mitochondria would move into autophagic vacuoles in response to appropriate stimulation; thus, mitochondria dysfunction may be a point of overlap between apoptotic and autophagocytic processes (Bras M, et al. Biochemistry (Mosc) 2005; 70:231-39). […] On the other hand, beclin-1 siRNA and 3-MA (autophagy inhibitor) blocked the cell death induced by 5.0 μM berberine combined with 6 Gy IR (p<0.001). As a consequence, berberine sensitized A549 cells to IR damage via inducing autophagic cell death.

Residues, ends and D or L forms follow the SMILES beside them. *: point of attachment. Cbz = O=C(OCc1ccccc1)*; CH2F = FC*

For `Cn1cnc(N)c2ncnc1-2` [3-MA, 3-methyladenine], the “effect of inhibitor on cell death induced by berberine combined with IR” value (A549, 5.0 μM berberine combined with 6 Gy IR, p<0.001) is listed as “blocked”.

Consider `COC(=O)C[C@H](NC(=O)[C@H](C)NC(=O)[C@@H](NC(=O)OCc1ccccc1)C(C)C)C(=O)CF` [z-VAD-fmk] (Cbz-Val-Ala-Asp(OMe)-CH2F), for which the “effect of inhibitor on cell viability of cells co-treated with berberine and IR” value (A549, berberine and IR co-treatment, p=0.15) is listed as “did not significantly affect”.

Source of the values: patent US20090076050A1, “SYNERGISTIC TUMOR-KILLING EFFECT OF RADIATION AND BERBERINE COMBINED TREATMENT IN LUNG CANCER” (CHUNG SHAN MEDICAL U., priority 2007, published 2009).
